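Protocol summary: plate cells (96-well), add compound at 5 concentrations, incubate 48 h, interpolate endpoints linearly. GI50: concentration for 50% inhibition of growth.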 Activity calls are given as the source filed them. No stated cut-off is given here; in the data, active = GI50 up to about 1.1 µM and inactive = higher.
How the values were obtained:
Test in all cases: growth of human tumour cells (NCI), 48 h
CAKI-1 = test system: CAKI-1
MDA-N = test system: MDA-N
ACHN = test system: ACHN
TK-10 = test system: TK-10
NCI-H460 = test system: NCI-H460
UACC-257 = test system: UACC-257
M14 = test system: M14
A549 = test system: A549
OVCAR-8 = test system: OVCAR-8
SW-620 = test system: SW-620
NCI/ADR-RES = test system: NCI/ADR-RES
HCC 2998 = test system: HCC 2998
SNB-75 = test system: SNB-75
OVCAR-4 = test system: OVCAR-4
SK-MEL-28 = test system: SK-MEL-28
RPMI-8226 = test system: RPMI-8226
NCI-H522 = test system: NCI-H522
NCI-H226 = test system: NCI-H226
MOLT-4 = test system: MOLT-4
HT-29 = test system: HT-29

Measured: GI50

Cc1cc2nc3c(C#N)c(-c4ccccc4)cc(Nc4cccc(C(F)(F)F)c4)n3c2cc1C
inactive: CAKI-1 4.85 µM | MDA-N 4.04 µM | ACHN 3.4 µM | TK-10 7.69 µM | NCI-H460 3.33 µM | UACC-257 3.48 µM | M14 4.78 µM | A549 3.18 µM | OVCAR-8 4.14 µM | SW-620 3.74 µM | NCI/ADR-RES 4.07 µM | HCC 2998 3.84 µM | SNB-75 8.83 µM | OVCAR-4 5.28 µM | SK-MEL-28 9.02 µM | RPMI-8226 1.61 µM | NCI-H522 4.49 µM | NCI-H226 3.86 µM

[N-]=[N+]=NC1CC(n2ccc(N)nc2=O)OC1COP(=O)(O)OP(=O)(O)OP(=O)(O)O (centres undefined)
inactive: CAKI-1 > 100 µM | MDA-N > 100 µM | ACHN > 100 µM | NCI-H460 > 100 µM | UACC-257 > 100 µM | MOLT-4 > 100 µM | M14 > 100 µM | A549 > 100 µM | OVCAR-8 > 100 µM | SW-620 > 100 µM | HT-29 > 100 µM | NCI/ADR-RES > 100 µM | HCC 2998 > 100 µM | SNB-75 > 100 µM | OVCAR-4 > 100 µM | SK-MEL-28 > 100 µM | RPMI-8226 > 100 µM | NCI-H522 > 100 µM | NCI-H226 > 100 µM

COC(=O)c1cc2c(cc1CC1Cc3cc4c(cc3C1)CCC4)CCC2
inactive: CAKI-1 90.6 µM | MDA-N 36.1 µM | ACHN 43.4 µM | TK-10 > 100 µM | NCI-H460 51.1 µM | UACC-257 25.8 µM | MOLT-4 17.2 µM | M14 63.8 µM | A549 60.4 µM | OVCAR-8 > 100 µM | SW-620 > 100 µM | HT-29 36.3 µM | NCI/ADR-RES > 100 µM | HCC 2998 22.6 µM | SNB-75 40.1 µM | OVCAR-4 84.7 µM | SK-MEL-28 19.5 µM | RPMI-8226 21.8 µM | NCI-H522 25.7 µM | NCI-H226 > 100 µM

C/C(=N\NC(N)=S)c1ccccn1.OB(O)c1ccccc1
inactive: CAKI-1 3.63 µM | MDA-N 7.53 µM | ACHN 2.04 µM | TK-10 14 µM | NCI-H460 3.78 µM | UACC-257 4.47 µM | MOLT-4 2.07 µM | M14 2.98 µM | A549 5.51 µM | OVCAR-8 3.63 µM | SW-620 5.93 µM | HT-29 6.47 µM | NCI/ADR-RES 3.7 µM | HCC 2998 4.36 µM | SNB-75 12.9 µM | OVCAR-4 4.25 µM | SK-MEL-28 9.23 µM | RPMI-8226 5.87 µM | NCI-H522 1.8 µM | NCI-H226 6.12 µM

O=C1C(=O)N(c2cccc(C(F)(F)F)c2)C(=O)C(=O)C1c1nc2ccccc2s1
inactive: CAKI-1 > 100 µM | MDA-N > 100 µM | ACHN > 65.2 µM | TK-10 > 90.8 µM | NCI-H460 > 100 µM | UACC-257 > 92 µM | MOLT-4 43.3 µM | M14 98.2 µM | A549 > 100 µM | OVCAR-8 20.2 µM | SW-620 61.1 µM | HT-29 78.3 µM | NCI/ADR-RES 45.2 µM | HCC 2998 99.5 µM | SNB-75 > 49.5 µM | OVCAR-4 > 92.5 µM | SK-MEL-28 > 100 µM | RPMI-8226 > 80 µM | NCI-H522 > 100 µM | NCI-H226 > 81.8 µM

CCOC(=O)c1c(SCCN2CCCC2)n(-c2ccccc2)c(=S)n(-c2ccccc2)c1=O
inactive: CAKI-1 2.29 µM | MDA-N 2.36 µM | ACHN 1.72 µM | TK-10 1.67 µM | NCI-H460 5.81 µM | UACC-257 1.69 µM | MOLT-4 1.65 µM | M14 1.75 µM | A549 4.02 µM | OVCAR-8 1.95 µM | SW-620 2.6 µM | HT-29 4.89 µM | NCI/ADR-RES 25.8 µM | HCC 2998 1.87 µM | SNB-75 6.93 µM | OVCAR-4 13.1 µM | SK-MEL-28 2.75 µM | RPMI-8226 2.18 µM | NCI-H522 1.77 µM | NCI-H226 16.8 µM

CCCCCc1c(CCCC)c(=O)[nH]c2cc(CNCC(OC)OC)ccc12
inactive: CAKI-1 10.9 µM | MDA-N 11.7 µM | ACHN 14.4 µM | TK-10 15 µM | NCI-H460 10.5 µM | UACC-257 4.92 µM | MOLT-4 5.33 µM | M14 2.81 µM | A549 12.6 µM | OVCAR-8 16.3 µM | SW-620 5.79 µM | HT-29 3.91 µM | NCI/ADR-RES 12.4 µM | HCC 2998 3.24 µM | SNB-75 15.6 µM | OVCAR-4 14.7 µM | SK-MEL-28 5.71 µM | RPMI-8226 4.08 µM | NCI-H522 17.6 µM | NCI-H226 20.6 µM

O=C1c2ccccc2C(=O)c2c1ccc1c2OCO1
inactive: CAKI-1 > 100 µM | MDA-N > 100 µM | ACHN > 10 µM | TK-10 > 100 µM | UACC-257 > 100 µM | MOLT-4 > 100 µM | M14 > 100 µM | A549 > 100 µM | OVCAR-8 > 100 µM | SW-620 > 100 µM | HT-29 > 100 µM | NCI/ADR-RES > 100 µM | HCC 2998 > 100 µM | SNB-75 23.1 µM | OVCAR-4 > 100 µM | SK-MEL-28 > 100 µM | RPMI-8226 > 100 µM | NCI-H522 > 100 µM | NCI-H226 58.7 µM

CCNc1nc(N)c(C(=O)c2cccs2)s1
inactive: CAKI-1 8.69 µM | MDA-N 25.6 µM | ACHN 22.3 µM | TK-10 48 µM | NCI-H460 20.4 µM | UACC-257 46.9 µM | MOLT-4 17.6 µM | M14 37.8 µM | A549 29.8 µM | OVCAR-8 24.7 µM | SW-620 8.59 µM | HT-29 17.2 µM | NCI/ADR-RES 35 µM | HCC 2998 34.3 µM | SNB-75 10.4 µM | OVCAR-4 21.1 µM | SK-MEL-28 31 µM | NCI-H522 26.3 µM | NCI-H226 24.2 µM

COc1ccc(-c2c3c(n(C4OC(CO)C(O)C(O)C4O)c(=S)c2C#N)CC(C)(C)CC3=O)cc1 (centres undefined)
inactive: CAKI-1 > 100 µM | MDA-N > 100 µM | ACHN > 100 µM | TK-10 > 100 µM | NCI-H460 > 100 µM | UACC-257 > 100 µM | MOLT-4 79.4 µM | M14 > 100 µM | A549 > 100 µM | OVCAR-8 > 100 µM | HT-29 > 100 µM | NCI/ADR-RES > 100 µM | HCC 2998 > 100 µM | SNB-75 96.6 µM | OVCAR-4 > 100 µM | SK-MEL-28 > 100 µM | RPMI-8226 89.7 µM | NCI-H522 > 100 µM | NCI-H226 96.6 µM

O=C1C(Cl)=C(N(C(=O)c2ccccc2)C(=O)c2ccccc2)C(=O)c2ccccc21
inactive: CAKI-1 10.5 µM | MDA-N 13.1 µM | ACHN 3.17 µM | TK-10 21.2 µM | NCI-H460 5.12 µM | UACC-257 14.9 µM | MOLT-4 55 µM | M14 14.4 µM | A549 16.4 µM | OVCAR-8 54 µM | SW-620 5.15 µM | HT-29 24.7 µM | NCI/ADR-RES 29.2 µM | HCC 2998 12.1 µM | SNB-75 3.68 µM | SK-MEL-28 14.9 µM | RPMI-8226 2.05 µM | NCI-H522 5.7 µM | NCI-H226 > 100 µM

Cc1cnc2sn(-c3ccc([N+](=O)[O-])cc3)c(=O)c2c1
inactive: MDA-N > 100 µM | ACHN 29.4 µM | TK-10 75.2 µM | NCI-H460 60.4 µM | MOLT-4 > 100 µM | M14 > 100 µM | A549 64.3 µM | OVCAR-8 43 µM | SW-620 > 100 µM | HT-29 > 100 µM | NCI/ADR-RES > 100 µM | HCC 2998 > 100 µM | SNB-75 23.8 µM | OVCAR-4 94.8 µM | SK-MEL-28 > 100 µM | RPMI-8226 > 100 µM | NCI-H522 34.7 µM | NCI-H226 > 100 µM

COC(=O)CCc1ccc2c(c1)CC1(C2)Cc2ccc3c(c2C1)CCC3 (centres undefined)
inactive: MDA-N 87.9 µM | ACHN > 100 µM | TK-10 > 100 µM | NCI-H460 > 100 µM | UACC-257 > 100 µM | MOLT-4 38.5 µM | M14 59.2 µM | A549 53.5 µM | OVCAR-8 46.2 µM | SW-620 > 100 µM | HT-29 70.3 µM | NCI/ADR-RES > 100 µM | HCC 2998 52.4 µM | SNB-75 > 100 µM | OVCAR-4 49.1 µM | SK-MEL-28 > 100 µM | RPMI-8226 31.3 µM | NCI-H522 59.2 µM | NCI-H226 > 100 µM

C/N=c1/oc2ccccc2cc1C(N)=O
inactive: CAKI-1 > 100 µM | MDA-N > 100 µM | ACHN > 100 µM | TK-10 > 100 µM | NCI-H460 > 100 µM | UACC-257 > 100 µM | MOLT-4 > 100 µM | M14 > 100 µM | A549 > 100 µM | OVCAR-8 > 100 µM | SW-620 > 100 µM | HT-29 > 100 µM | NCI/ADR-RES > 100 µM | HCC 2998 > 100 µM | SNB-75 > 100 µM | SK-MEL-28 > 100 µM | RPMI-8226 > 100 µM | NCI-H522 > 100 µM | NCI-H226 > 100 µM

Source: ChEMBL document CHEMBL1201862, “PubChem BioAssay data set” (2004)
